We go through 13 compounds from US20250215029A1 (Recludix Pharma, Inc., priority 2022, published 2025).

Molecules are shown by their SMILES. Where two headings read alike, the source gives them in different places.

Assay [1] addresses T1, pY641-STAT6 in PBMC (Homo sapiens, UniProt P42226).
T1 construct: Cryopreserved Peripheral Blood Mononuclear Cells (PBMC) are from AllCells; host or cells: cryopreserved PBMC
T1 sequence (P42226 1-847): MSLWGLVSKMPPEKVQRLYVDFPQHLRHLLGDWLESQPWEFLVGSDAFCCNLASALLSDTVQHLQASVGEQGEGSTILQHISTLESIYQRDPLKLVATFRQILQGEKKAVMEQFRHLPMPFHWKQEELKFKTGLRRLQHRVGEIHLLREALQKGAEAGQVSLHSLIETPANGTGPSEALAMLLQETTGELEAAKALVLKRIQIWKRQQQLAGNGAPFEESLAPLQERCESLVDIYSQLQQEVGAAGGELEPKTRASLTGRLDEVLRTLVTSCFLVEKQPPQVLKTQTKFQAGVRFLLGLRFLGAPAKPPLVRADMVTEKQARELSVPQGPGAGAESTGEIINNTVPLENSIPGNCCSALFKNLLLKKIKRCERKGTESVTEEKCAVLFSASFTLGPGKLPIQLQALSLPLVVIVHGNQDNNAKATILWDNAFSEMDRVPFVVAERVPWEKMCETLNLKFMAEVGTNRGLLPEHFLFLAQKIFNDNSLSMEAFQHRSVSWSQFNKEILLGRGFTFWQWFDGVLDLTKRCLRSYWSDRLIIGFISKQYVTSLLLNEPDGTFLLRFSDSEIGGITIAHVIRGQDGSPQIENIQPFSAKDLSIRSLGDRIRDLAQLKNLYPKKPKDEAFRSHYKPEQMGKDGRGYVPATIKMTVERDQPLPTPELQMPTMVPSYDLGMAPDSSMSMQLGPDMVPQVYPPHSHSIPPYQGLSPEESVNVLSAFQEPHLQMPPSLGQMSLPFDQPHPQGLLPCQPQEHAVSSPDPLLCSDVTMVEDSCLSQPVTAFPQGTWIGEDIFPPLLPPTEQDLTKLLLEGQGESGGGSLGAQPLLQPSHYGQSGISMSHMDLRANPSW
The assay can be described thus: MSD-pSTAT-PBMC Assay (pSTAT6, IL-4 stimulated). As to conditions: compound 3 hrs, then 1 ng/mL IL-4 for 10 min. The format is cell-based. The essentials: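 Inhibition of cytokine-induced STAT phosphorylation was measured in recovered human PBMC after 3 hrs compound exposure and a 10 min IL-4 (1 ng/mL) or IL-6 (10 ng/mL) challenge. MSD detection of pY641-STAT6 or pY705-STAT3 yielded IC50 values.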

Assay [2] addresses T2, pY705-STAT3 in PBMC (Homo sapiens, UniProt P40763).
T2 construct: Cryopreserved Peripheral Blood Mononuclear Cells (PBMC) are from AllCells; host or cells: cryopreserved PBMC
The assay can be described thus: MSD-pSTAT-PBMC Assay (pSTAT3, IL-6 stimulated). The format is cell-based. As to conditions: PBMC, compound 3 hrs, then 10 ng/mL IL-6 for 10 min. Put shortly: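 Thawed human PBMC rested overnight in IMDM/10% FBS, then got compound for 3 hrs before a 10 min cytokine pulse: 1 ng/mL IL-4 for pSTAT6, 10 ng/mL IL-6 for pSTAT3. Lysates went to MSD sandwich capture on total STAT6 or STAT3 with phospho-specific detection. IC50 came from background-subtracted, DMSO-normalized signal.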

The mark [3] stands for this setting: PBMC, Table 115, read-out: STAT6.
Where [4] appears, read: PBMC, Table 1114, read-out: pSTAT6.

T2 sequence (P40763 whole entry): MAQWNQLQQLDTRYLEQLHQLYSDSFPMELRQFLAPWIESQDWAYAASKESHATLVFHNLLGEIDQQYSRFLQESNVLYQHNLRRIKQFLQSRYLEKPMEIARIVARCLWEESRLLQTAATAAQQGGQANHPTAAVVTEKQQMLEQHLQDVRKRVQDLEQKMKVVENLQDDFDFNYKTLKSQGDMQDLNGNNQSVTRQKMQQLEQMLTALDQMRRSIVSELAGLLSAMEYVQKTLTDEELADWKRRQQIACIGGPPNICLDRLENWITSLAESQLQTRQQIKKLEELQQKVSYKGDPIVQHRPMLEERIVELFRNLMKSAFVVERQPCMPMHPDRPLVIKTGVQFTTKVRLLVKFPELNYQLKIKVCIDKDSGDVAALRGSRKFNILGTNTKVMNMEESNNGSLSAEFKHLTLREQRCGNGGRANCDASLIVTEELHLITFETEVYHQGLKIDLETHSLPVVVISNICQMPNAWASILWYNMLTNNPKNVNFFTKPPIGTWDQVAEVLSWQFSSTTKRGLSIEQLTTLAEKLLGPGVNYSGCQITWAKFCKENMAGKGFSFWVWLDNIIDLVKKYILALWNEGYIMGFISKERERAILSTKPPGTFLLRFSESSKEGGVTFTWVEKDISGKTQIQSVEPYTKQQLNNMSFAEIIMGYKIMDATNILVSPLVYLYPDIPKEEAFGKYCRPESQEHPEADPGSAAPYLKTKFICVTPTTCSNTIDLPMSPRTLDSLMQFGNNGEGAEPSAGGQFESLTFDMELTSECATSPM

In the case of `CCCOC(=O)[C@H](C)NP(=O)(Oc1ccccc1)[C@@H](F)c1ccc2sc(C(=O)N[C@H]3CCCC[C@H]4CC[C@@H](C(=O)N5C[C@H](c6ccccc6)[C@@H](C#N)C56CC6)N4C3=O)cc2c1` (stereo partly drawn) [Compound 381, propyl (((R)-(2-(((3S,6S,10aS)-3-((6S,7R)-7-cyano-6-phenyl-4-azaspiro[2.4]heptane-4-carbonyl)-5-oxodecahydropyrrolo [1,2-a]azocin-6-yl)carbamoyl)benzo [b]thiophen-5-yl)fluoromethyl) (phenoxy)phosphoryl)-L-alaninate], the IC50 was under 0.1 µM in assay [1] (STAT6, PBMC, Table 115) and over 3 µM in assay [2] (Table 115, read-out: STAT3).
`CC(C)CC(=O)SCCOP(=O)(OCOC(=O)O[C@@H]1CCOC1)C(F)(F)c1ccc2sc(C(=O)N[C@H]3CCCC[C@H]4CC[C@@H](C(=O)N5C[C@H](c6cc[nH]c(=O)c6)[C@@H](C#N)C5)N4C3=O)cc2c1` (single isomer, unassigned) [Compound 1094]: the IC50 in assay [1] (setting [3]) lay within 0.1 to 1 µM; in assay [2] (Table 115, read-out: STAT3) it was 1 to 3 µM.
As for `CC(C)(C)C(=O)OCOP(=O)(OCOC(=O)C(C)(C)C)C(F)(F)c1ccc2sc(C(=O)N[C@@]3(C)CCCCC4CC[C@@H](C(=O)N5C[C@H](c6ccccc6)[C@@H](C#N)C5)N4C3=O)cc2c1` (relative stereo) [Compound 151, ((((2-(((3S,6S,10aS)-3-(rel-trans)-3-cyano-4-phenylpyrrolidine-1-carbonyl)-6-methyl-5-oxodecahydro-pyrrolo[1,2-a]azocin-6-yl)carbamoyl)benzo[b]thiophen-5-yl)difluoromethyl)phosphoryl)bis (oxy))bis (methylene) bis(2,2-dimethylpropanoate)], the IC50 fell in the range of 0.1 to 1 µM in assay [1] (setting [4]) and 0.1 to 1 µM in assay [2] (Table 1114, read-out: pSTAT3).
On to `CCCOC(=O)[C@H](C)NP(=O)(Oc1ccccc1)C(F)c1ccc2sc(C(=O)N[C@H]3CCCC[C@H]4CC[C@@H](C(=O)N5C[C@@H](c6ccccc6)[C@H](C#N)C56CC6)N4C3=O)cc2c1` (relative stereo) [Compound 325, propyl (((2-(((3S,6S,10aS)-3-((rel-trans)-7-cyano-6-phenyl-4-azaspiro[2.4]heptane-4-carbonyl)-5-oxodecahydropyrrolo [1,2-a]azocin-6-yl)carbamoyl)benzo [b]thiophen-5-yl)fluoromethyl) (phenoxy)phosphoryl)-L-alaninate], for which the IC50 is under 0.1 µM in assay [1] (setting [3]) and over 3 µM in assay [2] (Table 115, read-out: STAT3).
For `CC(C)CC(=O)SCCOP(=O)(OCOC(=O)OC(C)C)C(F)(F)c1ccc2ccc(C(=O)N[C@H]3CCCC[C@H]4CC[C@@H](C(=O)N5C[C@H](c6cc[nH]c(=O)c6)[C@@H](C#N)C5)N4C3=O)cc2c1` (single isomer, unassigned) [Compound 1100], the IC50 is under 0.1 µM in assay [1] (setting [3]) and 0.1 to 1 µM in assay [2] (Table 115, read-out: STAT3).
On to `CCCOC(=O)[C@H](C)NP(=O)(Oc1ccccc1)[C@@H](F)c1ccc2sc(C(=O)N[C@H]3CCCC[C@H]4CC[C@@H](C(=O)N5C[C@H](c6cccc(F)c6)C(C#N)C56CC6)N4C3=O)cc2c1` (relative stereo) [Compound 337, propyl (((R)-(2-(((3S,6S,10aS)-3-((rel-trans)-7-cyano-6-(3-fluorophenyl)-4-azaspiro[2.4]heptane-4-carbonyl)-5-oxodecahydropyrrolo [1,2-a]azocin-6-yl)carbamoyl)benzo [b]thiophen-5-yl)fluoromethyl) (phenoxy)phosphoryl)-L-alaninate], for which the IC50 is under 0.1 µM in assay [1] (STAT6, PBMC, Table 115) and over 3 µM in assay [2] (Table 115, read-out: STAT3).
Turning to `CC(C)(C)C(=O)SCCOP(=O)(Cc1ccc2sc(C(=O)N[C@H]3CCCC[C@H]4CC[C@@H](C(=O)N5C[C@@H](C#N)[C@H](c6ccccc6)C5)N4C3=O)cc2c1)OCCSC(=O)C(C)(C)C` (single isomer, unassigned) [Compound 149, S,S′-(((((2-(((3S,6S,10aS)-3-((3S,4R or 3R,4S)-3-cyano-4-phenylpyrrolidine-1-carbonyl)-5-oxodecahydro-pyrrolo[1,2-a]azocin-6-yl)carbamoyl)benzo[b]thiophen-5-yl)methyl)phosphoryl)bis (oxy))bis(ethane-2,1-diyl))bis(2,2-dimethyl-propanethioate)], the IC50 in assay [1] (setting [4]) is over 3 µM; in assay [2] (Table 1114, read-out: pSTAT3), over 3 µM.
Take `CCCOC(=O)[C@H](C)NP(=O)(Oc1ccccc1)C(F)c1ccc2sc(C(=O)N[C@H]3CCCC[C@H]4CC[C@@H](C(=O)N5C[C@@H](c6cccnc6)CC56CC6)N4C3=O)cc2c1` (stereo in doubt) [Compound 457, propyl (((R)-fluoro(2-(((3S,6S,10aS)-5-oxo-3-((R)-6-(pyridin-3-yl)-4-azaspiro[2.4]heptane-4-carbonyl)decahydropyrrolo[1,2-a]azocin-6-yl)carbamoyl)benzo [b]thiophen-5-yl)methyl)(phenoxy)phosphoryl)-L-alaninate]: the IC50 in assay [1] (STAT6, PBMC, Table 115) was under 0.1 µM; in assay [2] (Table 115, read-out: STAT3), over 3 µM.
For the compound `CC(C)CC(=O)SCCOP(=O)(OCCSC(=O)CC(C)C)C(F)(F)c1ccc2sc(C(=O)N[C@H]3CCCC[C@H]4CC[C@@H](C(=O)N5C[C@@H](C#N)[C@H](c6cc[nH]c(=O)c6)C5)N4C3=O)cc2c1` (single isomer, unassigned) [Compound 154, S,S′-(((((2-(((3S,6S,10aS)-3-((3S,4R or 3R,4S)-3-cyano-4-(2-oxo-1,2-dihydropyridin-4-yl)pyrrolidine-1-carbonyl)-5-oxodecahydro-pyrrolo[1,2-a]azocin-6-yl)carbamoyl)benzo [b]thiophen-5-yl)difluoromethyl)phosphoryl)bis (oxy))bis(ethane-2,1-diyl)) bis(3-methylbutane thioate)], the IC50 in assay [1] (setting [4]) lay within 0.1 to 1 µM; in assay [2] (Table 1114, read-out: pSTAT3), 0.1 to 1 µM.
In the case of `CC(C)(C)C(=O)OCOP(=O)(OCOC(=O)C(C)(C)C)C(F)(F)c1ccc2sc(C(=O)N[C@H]3CCCCC[C@H]4CC[C@@H](C(=O)N5C[C@@H](C#N)[C@H](c6ccccc6)C5)N4C3=O)cc2c1` (relative stereo) [Compound 146, ((((2-(((3S,6S,11aS)-3-(rel-(trans)-3-cyano-4-phenylpyrrolidine-1-carbonyl)-5-oxodecahydro-1H-pyrrolo[1,2-a]azonin-6-yl)carbamoyl)benzo[b]thiophen-5-yl)difluoromethyl)phosphoryl)bis (oxy))bis(methylene) bis(2,2-dimethyl-propanoate)], the IC50 was under 0.1 µM in assay [1] (setting [4]) and 1 to 3 µM in assay [2] (Table 1114, read-out: pSTAT3).
Take `CC(C)OC(=O)[C@H](C)NP(=O)(Oc1ccccc1)C(F)c1ccc2sc(C(=O)N[C@H]3CCCC[C@H]4CC[C@@H](C(=O)N5C[C@H](c6cc[nH]c(=O)c6)[C@@H](C#N)C5)N4C3=O)cc2c1` (single isomer, unassigned) [Compound 198, isopropyl (((2-(((3S,6S,10aS)-3-((3R,4S or 3S,4R)-3-cyano-4-(2-oxo-1,2-dihydropyridin-4-yl)pyrrolidine-1-carbonyl)-5-oxodecahydro-pyrrolo[1,2-a]azocin-6-yl)carbamoyl)benzo[b]thiophen-5-yl)fluoro-methyl) (phenoxy)phosphoryl)-L-alaninate]: the IC50 in assay [1] (pSTAT6, PBMC, Table 1114) is over 3 µM; in assay [2] (Table 1114, read-out: pSTAT3) it was over 3 µM.
As for `CCCC(=O)SCCOP(=O)(OCCSC(=O)CCC)C(F)(F)c1ccc2sc(C(=O)N[C@H]3CCCC[C@H]4CC[C@@H](C(=O)N5C[C@@H](C#N)[C@H](c6ccccc6)C5)N4C3=O)cc2c1` (relative stereo) [Compound 126, S,S′-(((((2-(((3S,6S,10aS)-3-(rel-trans)-3-cyano-4-phenylpyrrolidine-1-carbonyl)-5-oxodecahydro-pyrrolo[1,2-a]azocin-6-yl)carbamoyl)benzo[b]thiophen-5-yl)difluoromethyl)phosphoryl)bis(oxy)) bis(ethane-2,1-diyl)) dibutanethioate], the IC50 in assay [1] (setting [4]) is under 0.1 µM; in assay [2] (Table 1114, read-out: pSTAT3), 0.1 to 1 µM.
Take `CC(C)(C)C(=O)OCOP(=O)(OCOC(=O)C(C)(C)C)C(F)(F)c1ccc2ccc(C(=O)N[C@H]3CCCC[C@H]4CC[C@@H](C(=O)N5C[C@@H](C#N)[C@]6(C5)C(=O)Nc5ccccc56)N4C3=O)cc2c1` (single isomer, unassigned) [Compound 193]: the IC50 in assay [1] (setting [4]) is under 0.1 µM; in assay [2] (Table 1114, read-out: pSTAT3) it was under 0.1 µM.
